{"source": "ChEMBL document CHEMBL4706653", "about": "“Ultra-short lipopeptides against gram-positive bacteria while alleviating antimicrobial resistance” (Eur J Med Chem, 2021)", "key": {"Staphylococcus aureus [1]": {"tested_on": "Staphylococcus aureus", "test": "Ratio of MIC for antimicrobial activity against Staphylococcus aureus ATCC 25923 in presence of 2.5% serum to MIC for antimicrobial activity against Staphylococcus aureus ATCC 25923 in absence of serum", "type": "functional"}, "Cell membrane [2]": {"tested_on": "Cell membrane", "test": "Induction of membrane disruption in Staphylococcus aureus ATCC 25923 assessed as PI-positive cells at 4 times MIC measured after 30 mins by propidium iodide staining based flow cytometry relative to control"}, "Staphylococcus aureus [3]": {"tested_on": "Staphylococcus aureus", "test": "Antimicrobial activity against Staphylococcus aureus ATCC 25923 assessed as bacterial killing at 4 times MIC preincubated for 30 mins followed by replating on MHB agar and measured after 24 hrs by time kill assay", "type": "functional, organism-based", "conditions": "time 24.5 hrs"}, "[4]": {"test": "Stability in mouse serum assessed as parent compound remaining at volume ratio of 1:19 measured after 6 hrs by RP-HPLC analysis", "type": "ADME, cell-free", "conditions": "read-out: Stabilty"}, "Staphylococcus aureus [5]": {"tested_on": "Staphylococcus aureus", "test": "Antimicrobial activity against Staphylococcus aureus ATCC 25923 assessed as reduction in bacterial growth at 0.5 to 1 times MIC preincubated for 4 hrs followed by replating on MHB agar and measured after 24 hrs by time kill assay", "type": "functional, organism-based", "conditions": "time 28.0 hrs"}, "HEK-293T": {"tested_on": "HEK-293T", "test": "Cytotoxicity against HEK293T cells assessed as reduction in cell viability at 64 to 128 uM measured after 24 hrs by MTT assay", "type": "cell-based", "conditions": "human, dose 64-128 µM"}, "Staphylococcus aureus [6]": {"tested_on": "Staphylococcus aureus", "test": "Ratio of MIC for antimicrobial activity against Staphylococcus aureus ATCC 25923 in presence of 10% serum to MIC for antimicrobial activity against Staphylococcus aureus ATCC 25923 in absence of serum", "type": "functional"}, "Cell membrane [7]": {"tested_on": "Cell membrane", "test": "Induction of cytoplasmic membrane disruption in Staphylococcus aureus ATCC 25923 measured for 15 mins by DiSC3-5 dye based fluorescence assay"}, "Staphylococcus aureus [8]": {"tested_on": "Staphylococcus aureus", "test": "Antimicrobial activity against Staphylococcus aureus ATCC 25923 assessed as bacterial killing at 2 times MIC preincubated for 2 hrs followed by replating on MHB agar and measured after 24 hrs by time kill assay", "type": "functional, organism-based", "conditions": "time 26.0 hrs"}, "Staphylococcus aureus [9]": {"tested_on": "Staphylococcus aureus", "test": "Antimicrobial activity against Staphylococcus aureus ATCC 25923 infected in neutropenia BALB/c mouse assessed as reduction in lung bacterial load at 10 to 20 mg/kg, ip administered staring from 2 hrs post infection and measured 8 hrs post-infected", "type": "functional, organism-based", "conditions": "dose 10-20 mg/kg, time 6.0 hrs"}, "[10]": {"test": "Toxicity in BALB/c mouse assessed as eosinophilic mass in the renal tubular lumen at 80 mg/kg, ip administered as single dose measured after 5 days", "type": "organism-based", "conditions": "in vivo, 120 h, time 5 day"}, "Staphylococcus aureus [11]": {"tested_on": "Staphylococcus aureus", "test": "Antimicrobial activity against Staphylococcus aureus ATCC 25923 infected in neutropenia BALB/c mouse assessed as reduction in bacterial load in spleen at 10 to 20 mg/kg, ip administered staring from 2 hrs post infection and measured 8 hrs post-infected", "type": "functional, organism-based", "conditions": "dose 10-20 mg/kg, time 6.0 hrs"}, "Staphylococcus aureus [12]": {"tested_on": "Staphylococcus aureus", "test": "Antimicrobial activity against Staphylococcus aureus ATCC 25923 infected in neutropenia BALB/c mouse assessed as reduction in bacterial load in kidney at 10 to 20 mg/kg, ip administered staring from 2 hrs post infection and measured 8 hrs post-infected", "type": "functional, organism-based", "conditions": "dose 10-20 mg/kg, time 6.0 hrs"}, "Mus musculus [13]": {"tested_on": "Mus musculus", "test": "Antiinflammatory activity in Staphylococcus aureus ATCC 25923 infected neutropenia BALB/c mouse assessed as reduction in TNFalpha level in serum at 10 mg/kg, ip administered staring from 2 hrs post infection and measured 8 hrs post-infected in presence of ciprofloxacin", "type": "functional, organism-based", "conditions": "time 6.0 hrs"}, "Staphylococcus aureus [14]": {"tested_on": "Staphylococcus aureus", "test": "Antimicrobial activity against Staphylococcus aureus ATCC 25923 assessed as bacterial killing at 2 to 4 times MIC preincubated for 30 mins followed by replating on MHB agar and measured after 24 hrs by time kill assay", "type": "functional, organism-based", "conditions": "time 24.5 hrs"}, "Staphylococcus aureus [15]": {"tested_on": "Staphylococcus aureus", "test": "Antimicrobial activity against Staphylococcus aureus ATCC 25923 infected in neutropenia BALB/c mouse assessed as reduction in bacterial load in liver at 10 mg/kg, ip administered staring from 2 hrs post infection and measured 8 hrs post-infected in presence of ciprofloxacin", "type": "functional, organism-based", "conditions": "time 6.0 hrs"}, "Staphylococcus aureus [16]": {"tested_on": "Staphylococcus aureus", "test": "Antimicrobial activity against Staphylococcus aureus ATCC 25923 assessed as bacterial killing at 0.5 times MIC preincubated for 4 hrs followed by replating on MHB agar and measured after 24 hrs by time kill assay", "type": "functional, organism-based", "conditions": "time 28.0 hrs"}, "[17]": {"test": "Cytotoxicity against HEK293T cells assessed as cell viability at 128 uM measured after 24 hrs by MTT assay relative to control", "type": "cell-based, HEK-293T", "conditions": "human, read-out: Activity"}, "[18]": {"test": "Toxicity in BALB/c mouse assessed as swelling of renal tubular epithelial cells at 80 mg/kg, ip administered as single dose measured after 5 days", "type": "organism-based", "conditions": "in vivo, 120 h, time 5 day"}, "[19]": {"test": "Toxicity in BALB/c mouse assessed as inflammatory cell infiltration in kidney at 80 mg/kg, ip administered as single dose measured after 5 days", "type": "organism-based", "conditions": "in vivo, 120 h, time 5 day"}, "Staphylococcus aureus [20]": {"tested_on": "Staphylococcus aureus", "test": "Antimicrobial activity against Staphylococcus aureus ATCC 25923 infected in neutropenia BALB/c mouse assessed as reduction in bacterial load in kidney at 10 mg/kg, ip administered staring from 2 hrs post infection and measured 8 hrs post-infected in presence of ciprofloxacin", "type": "functional, organism-based", "conditions": "time 6.0 hrs"}, "Cell membrane [21]": {"tested_on": "Cell membrane", "test": "Induction of cytoplasmic membrane disruption in Staphylococcus aureus ATCC 25923 at 0.5 to 4 times MIC measured for 15 mins by DiSC3-5 dye based fluorescence assay"}, "[22]": {"test": "Toxicity in BALB/c mouse assessed as inflammatory cell infiltration in liver at 20 to 40 mg/kg, ip administered as single dose measured after 5 days", "type": "organism-based", "conditions": "in vivo, 120 h, dose 20-40 mg/kg, time 5 day"}, "Staphylococcus aureus [23]": {"tested_on": "Staphylococcus aureus", "test": "Antimicrobial activity against Staphylococcus aureus ATCC 25923 infected in neutropenia BALB/c mouse assessed as reduction in bacterial load in spleen at 10 mg/kg, ip administered staring from 2 hrs post infection and measured 8 hrs post-infected in presence of ciprofloxacin", "type": "functional, organism-based", "conditions": "time 6.0 hrs"}, "Staphylococcus aureus [24]": {"tested_on": "Staphylococcus aureus", "test": "Antimicrobial activity against Staphylococcus aureus ATCC 25923 infected in neutropenia BALB/c mouse assessed as reduction in bacterial load in liver at 10 to 20 mg/kg, ip administered staring from 2 hrs post infection and measured 8 hrs post-infected", "type": "functional, organism-based", "conditions": "dose 10-20 mg/kg, time 6.0 hrs"}, "[25]": {"test": "Toxicity in BALB/c mouse assessed as inflammatory cell infiltration in liver at 80 mg/kg, ip administered as single dose measured after 5 days", "type": "organism-based", "conditions": "in vivo, 120 h, time 5 day"}, "Staphylococcus aureus [26]": {"tested_on": "Staphylococcus aureus", "test": "Antimicrobial activity against Staphylococcus aureus ATCC 25923 assessed as bacterial killing at MIC preincubated for 1 hr followed by replating on MHB agar and measured after 24 hrs by time kill assay", "type": "functional, organism-based", "conditions": "time 25.0 hrs"}, "[27]": {"test": "Stability in mouse serum assessed as drug degradation at volume ratio of 1:19 measured after 6 hrs by RP-HPLC analysis", "type": "ADME, cell-free", "conditions": "read-out: Drug degradation"}, "[28]": {"test": "Toxicity in BALB/c mouse assessed as effect on body weight at 20 to 80 mg/kg, ip administered as single dose measured for 5 days", "type": "organism-based", "conditions": "in vivo, 120 h, dose 20-80 mg/kg, time 5 day"}, "[29]": {"test": "Toxicity in BALB/c mouse assessed as ruffled fur at 80 mg/kg, ip administered as single dose measured for 5 days", "type": "organism-based", "conditions": "in vivo, 120 h, time 5 day"}, "Mus musculus [30]": {"tested_on": "Mus musculus", "test": "Antiinflammatory activity in Staphylococcus aureus ATCC 25923 infected neutropenia BALB/c mouse assessed as reduction in TNFalpha level in serum at 10 to 20 mg/kg, ip administered staring from 2 hrs post infection and measured 8 hrs post-infected", "type": "functional, organism-based", "conditions": "dose 10-20 mg/kg, time 6.0 hrs"}}, "note": "Activity calls are given as the source filed them. The calls are words filed in the database; no cut-off is given here. Residues, ends and D or L forms follow the SMILES beside them. *: point of attachment. Myristoyl = CCCCCCCCCCCCCC(=O)*; Lauroyl = CCCCCCCCCCCC(=O)*"}
{"smiles": "CCCCCCCCCCCC(=O)N[C@@H](CCCNC(=N)N)C(=O)N[C@@H](CCCNC(=N)N)C(=O)N[C@@H](Cc1c[nH]c2ccccc12)C(N)=O", "note": "(Lauroyl-Arg-Arg-Trp-NH2)", "values": [{"measurement": "Ratio", "setting": "Staphylococcus aureus [1]", "value": 8}, {"measurement": "Activity", "setting": "Cell membrane [2]", "value": 77.2, "unit": "%"}, {"measurement": "Activity", "setting": "Staphylococcus aureus [3]", "value": "Active"}, {"measurement": "remaining at 6 h", "setting": "[4]", "value": 70, "unit": "%"}, {"measurement": "Activity", "setting": "Staphylococcus aureus [5]", "value": "inactive"}, {"measurement": "Activity", "setting": "HEK-293T", "value": "Toxic"}, {"measurement": "Ratio", "setting": "Staphylococcus aureus [6]", "value": 8}, {"measurement": "Activity", "setting": "Cell membrane [7]", "value": "Dose-dependent effect"}, {"measurement": "Activity", "setting": "Staphylococcus aureus [8]", "value": "Active"}]}
{"smiles": "CCCCCCCCCCCCCC(=O)N[C@@H](CCCNC(=N)N)C(=O)N[C@@H](Cc1c[nH]c2ccccc12)C(=O)N[C@@H](Cc1c[nH]c2ccccc12)C(N)=O", "note": "(Myristoyl-Arg-Trp-Trp-NH2)", "values": [{"measurement": "Activity", "setting": "Staphylococcus aureus [9]", "value": "Active"}, {"measurement": "Activity", "setting": "[10]", "value": "Toxic"}, {"measurement": "Activity", "setting": "Staphylococcus aureus [11]", "value": "Active"}, {"measurement": "Activity", "setting": "Staphylococcus aureus [12]", "value": "Active"}, {"measurement": "Activity", "setting": "Mus musculus [13]", "value": "Active"}, {"measurement": "Activity", "setting": "Staphylococcus aureus [14]", "value": "Active"}, {"measurement": "Activity", "setting": "Staphylococcus aureus [15]", "value": "Active"}, {"measurement": "Activity", "setting": "Staphylococcus aureus [16]", "value": "inactive"}, {"measurement": "viability at 24 h, 128 µM", "setting": "[17]", "value": "> 80", "unit": "%"}, {"measurement": "Activity", "setting": "[18]", "value": "Toxic"}, {"measurement": "Activity", "setting": "[19]", "value": "Toxic"}, {"measurement": "Activity", "setting": "Staphylococcus aureus [20]", "value": "Active"}, {"measurement": "Activity", "setting": "Cell membrane [21]", "value": "Active"}, {"measurement": "Activity", "setting": "[22]", "value": "Non-Toxic"}, {"measurement": "Ratio", "setting": "Staphylococcus aureus [6]", "value": 2}, {"measurement": "Activity", "setting": "Staphylococcus aureus [23]", "value": "Active"}, {"measurement": "Activity", "setting": "Staphylococcus aureus [24]", "value": "Active"}, {"measurement": "Activity", "setting": "[25]", "value": "Toxic"}, {"measurement": "Activity", "setting": "Staphylococcus aureus [26]", "value": "Active"}, {"measurement": "metabolised at 6 h", "setting": "[27]", "value": 70, "unit": "%"}, {"measurement": "Activity", "setting": "[28]", "value": "Toxic"}, {"measurement": "Activity", "setting": "[29]", "value": "Toxic"}, {"measurement": "Activity", "setting": "Mus musculus [30]", "value": "Active"}]}
